Data: patent publication US9724336B2, “Pharmaceutical composition for preventing or treating hyperlipidemia” (priority 2011, dated 2017)

Columns and labels:
[1] = system: hypertriglyceridemia and hypercholesterolemia-induced animals; assay: Triglyceride concentrations in hypertriglyceridemia and hypercholesterolemia-induced animals (Example 2); format: in vivo, New Zealand White rabbits; conditions: 4 weeks oral once per day, Compound of Formula 1 20 mg/kg/day and/or olmesartan medoxomil 3 mg/kg/day
Text: Male New Zealand White rabbits were used as a test animal. All animals, except for the G1 group animals (negative control group), were fed with an irradiation-sterilized hypertriglyceridemia and hypercholesterolemia diet, i.e., DYET #621082 (Purina #5321 chow with 0.5% cholesterol, 14% coconut oil & 2% Maltose Dextrin, Dyets, Inc., Bethlehem, Pa. 18017), which was purchased from Saeronbio Inc. In order to induce hypertriglyceridemia and hypercholesterolemia, the animals were supplied with the diet for more than 4 weeks. After collecting the blood samples from the animals, serum biochemical analyses were performed thereon. Animals showing significant changes in total cholesterol levels and triglyceride levels were selected, in comparison with the non-treated control group. The selected animals were divided into 4 groups on the basis of the total cholesterol levels and triglyceride levels, thereby all the groups having substantially equal average values in the total cholesterol levels and triglyceride levels. The test materials were dissolved in saline containing 0.5% carboxymethylcellulose sodium and 1% Tween 80 and then administered directly into the stomach using an oral syringe adapted with a latex catheter, once per day for 4 weeks. The test groups are as in the following Table 3. […]

[2] = system: hypertriglyceridemia and hypercholesterolemia-induced animals; assay: HDL cholesterol concentrations in blood of hypertriglyceridemia and hypercholesterolemia-induced animals (Example 2); format: in vivo, New Zealand White rabbits; conditions: 4 weeks oral once per day, Compound of Formula 1 20 mg/kg/day and/or olmesartan medoxomil 3 mg/kg/day; for average HDL cholesterol concentrations, 4 weeks: n=4-7; for Percent increase of HDL cholesterol level (%): in comparison with the G2 group
Text: Male New Zealand White rabbits were used as a test animal. All animals, except for the G1 group animals (negative control group), were fed with an irradiation-sterilized hypertriglyceridemia and hypercholesterolemia diet, i.e., DYET #621082 (Purina #5321 chow with 0.5% cholesterol, 14% coconut oil & 2% Maltose Dextrin, Dyets, Inc., Bethlehem, Pa. 18017), which was purchased from Saeronbio Inc. In order to induce hypertriglyceridemia and hypercholesterolemia, the animals were supplied with the diet for more than 4 weeks. After collecting the blood samples from the animals, serum biochemical analyses were performed thereon. Animals showing significant changes in total cholesterol levels and triglyceride levels were selected, in comparison with the non-treated control group. The selected animals were divided into 4 groups on the basis of the total cholesterol levels and triglyceride levels, thereby all the groups having substantially equal average values in the total cholesterol levels and triglyceride levels. The test materials were dissolved in saline containing 0.5% carboxymethylcellulose sodium and 1% Tween 80 and then administered directly into the stomach using an oral syringe adapted with a latex catheter, once per day for 4 weeks. The test groups are as in the following Table 3.
The blood samples were collected through the jugular vein, from the animals at the day initiating the administration of the test material(s) (i.e., at the time of group-dividing, 0 week), and from the animals (which were fasted for 12 to 16 hours before collecting the blood) at 4 weeks after initiating the administration of the test material(s) (n=4-7).

Row | SMILES | average triglyceride concentrations, 4 weeks ([1]; 0.5% cholesterol, 14% coconut oil diet, n=4-7) [mg/dL] | Percent inhibition of triglyceride in the blood (%) ([1]; in comparison with the G2 group) | average HDL cholesterol concentrations, 4 weeks [2] [mg/dL] | Percent increase of HDL cholesterol level (%) [2] [%]
1 | CCCc1nc(C(C)(C)O)c(C(=O)OCc2oc(=O)oc2C)n1Cc1ccc(-c2ccccc2-c2nnn[nH]2)cc1 [Olmesartan medoxomil] | 217.4 | 33.4 | 125.3 | 2.6
2 | COc1cc(F)c(C(C)C)cc1-c1ccc(C(F)(F)F)cc1CN1C(=O)O[C@H](c2cc(C(F)(F)F)cc(C(F)(F)F)c2)[C@@H]1C [Compound of Formula 1, (4S,5R)-5-[3,5-bis(trifluoromethyl)phenyl]-3-({2-[4-fluoro-2-methoxy-5-(propan-2-yl)phenyl]-5-(trifluoromethyl)phenyl}methyl)-4-methyl-1,3-oxazolidin-2-one] | – | – | 168.5 | 37.9
